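Five concentrations, 48 hours, 96-well plates. The concentration for 50% growth inhibition is given as GI50. At the TGI there is no net growth.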
Columns and labels:
Assay in all cases: growth of human tumour cells (NCI), 48 h; in the data active = GI50 below about 0.43 µM; inactive = the rest
786-0 renal = system: 786-0 renal
A498 renal = system: A498 renal
A549 NSCLC = system: A549 NSCLC
ACHN renal = system: ACHN renal
BT-549 breast = system: BT-549 breast
CAKI-1 renal = system: CAKI-1 renal
CCRF-CEM leukemia = system: CCRF-CEM leukemia
COLO 205 colon = system: COLO 205 colon
DU-145 prostate = system: DU-145 prostate
EKVX NSCLC = system: EKVX NSCLC
HCC-2998 colon = system: HCC-2998 colon
HCT-116 colon = system: HCT-116 colon
HCT-15 colon = system: HCT-15 colon
HL-60(TB) leukemia = system: HL-60(TB) leukemia
HOP-62 NSCLC = system: HOP-62 NSCLC
HOP-92 NSCLC = system: HOP-92 NSCLC
HS 578T breast = system: HS 578T breast
HT29 colon = system: HT29 colon
IGROV1 ovarian = system: IGROV1 ovarian
K-562 leukemia = system: K-562 leukemia
KM12 colon = system: KM12 colon
LOX IMVI melanoma = system: LOX IMVI melanoma
M14 melanoma = system: M14 melanoma
MALME-3M melanoma = system: MALME-3M melanoma
MCF7 breast = system: MCF7 breast
MDA-MB-231 breast = system: MDA-MB-231 breast
MDA-MB-435 = system: MDA-MB-435
MOLT-4 leukemia = system: MOLT-4 leukemia
NCI-H226 lung = system: NCI-H226 lung
NCI-H23 lung = system: NCI-H23 lung
NCI-H460 lung = system: NCI-H460 lung
NCI-H522 lung = system: NCI-H522 lung
NCI/ADR-RES ovarian = system: NCI/ADR-RES ovarian
OVCAR-3 ovarian = system: OVCAR-3 ovarian
OVCAR-4 ovarian = system: OVCAR-4 ovarian
OVCAR-5 ovarian = system: OVCAR-5 ovarian
OVCAR-8 ovarian = system: OVCAR-8 ovarian
PC-3 prostate = system: PC-3 prostate
RPMI-8226 leukemia = system: RPMI-8226 leukemia
RXF 393 renal = system: RXF 393 renal
SF-268 CNS = system: SF-268 CNS
SF-295 CNS = system: SF-295 CNS
SF-539 CNS = system: SF-539 CNS
SK-MEL-2 melanoma = system: SK-MEL-2 melanoma
SK-MEL-28 melanoma = system: SK-MEL-28 melanoma
SK-MEL-5 melanoma = system: SK-MEL-5 melanoma
SK-OV-3 ovarian = system: SK-OV-3 ovarian
SN12C renal = system: SN12C renal
SNB-19 CNS = system: SNB-19 CNS
SNB-75 CNS = system: SNB-75 CNS
SR leukemia = system: SR leukemia
SW-620 colon = system: SW-620 colon
T-47D breast = system: T-47D breast
TK-10 renal = system: TK-10 renal
U251 CNS = system: U251 CNS
UACC-257 melanoma = system: UACC-257 melanoma
UACC-62 melanoma = system: UACC-62 melanoma
UO-31 renal = system: UO-31 renal
MDA-N = system: MDA-N

N#Cc1c(-c2ccccc2)cc(-c2ccccc2)n(CCCCC(=O)NO)c1=O
6.02 µM: TGI (UACC-62 melanoma)
8.36 µM: TGI (NCI-H522 lung)
6.94 µM: TGI (NCI-H23 lung)
11 µM: TGI (MCF7 breast)
6.84 µM: TGI (HL-60(TB) leukemia)
7.99 µM: TGI (T-47D breast)
6.45 µM: TGI (CCRF-CEM leukemia)
5 µM: TGI (SK-OV-3 ovarian)
inactive: GI50 (786-0 renal) 2830 nM | GI50 (A498 renal) 1250 nM | GI50 (A549 NSCLC) 3.29 µM | GI50 (ACHN renal) 2320 nM | GI50 (BT-549 breast) 3.65 µM | GI50 (CAKI-1 renal) 1610 nM | GI50 (CCRF-CEM leukemia) 1680 nM | GI50 (COLO 205 colon) 2740 nM | GI50 (DU-145 prostate) 2960 nM | GI50 (EKVX NSCLC) 2820 nM | GI50 (HCC-2998 colon) 2650 nM | GI50 (HCT-116 colon) 2370 nM | GI50 (HCT-15 colon) 570 nM | GI50 (HL-60(TB) leukemia) 2390 nM | GI50 (HOP-62 NSCLC) 2240 nM | GI50 (HOP-92 NSCLC) 2230 nM | GI50 (HS 578T breast) 2030 nM | GI50 (HT29 colon) 3.51 µM | GI50 (IGROV1 ovarian) 2480 nM | GI50 (K-562 leukemia) 2100 nM | GI50 (KM12 colon) 2800 nM | GI50 (LOX IMVI melanoma) 1710 nM | GI50 (M14 melanoma) 2760 nM | GI50 (MALME-3M melanoma) 1250 nM | GI50 (MCF7 breast) 1790 nM | GI50 (MDA-MB-231 breast) 3.27 µM | GI50 (MDA-MB-435) 2400 nM | GI50 (MOLT-4 leukemia) 1840 nM | GI50 (NCI-H226 lung) 3.98 µM | GI50 (NCI-H23 lung) 2400 nM | GI50 (NCI-H460 lung) 3.71 µM | GI50 (NCI-H522 lung) 2060 nM | GI50 (NCI/ADR-RES ovarian) 703 nM | GI50 (OVCAR-3 ovarian) 2260 nM | GI50 (OVCAR-4 ovarian) 2740 nM | GI50 (OVCAR-5 ovarian) 2600 nM | GI50 (OVCAR-8 ovarian) 2160 nM | GI50 (PC-3 prostate) 2720 nM | GI50 (RPMI-8226 leukemia) 1570 nM | GI50 (RXF 393 renal) 1430 nM | GI50 (SF-268 CNS) 2710 nM | GI50 (SF-295 CNS) 2130 nM | GI50 (SF-539 CNS) 2510 nM | GI50 (SK-MEL-2 melanoma) 3.21 µM | GI50 (SK-MEL-28 melanoma) 2800 nM | GI50 (SK-MEL-5 melanoma) 1840 nM | GI50 (SK-OV-3 ovarian) 2060 nM | GI50 (SN12C renal) 2950 nM | GI50 (SNB-19 CNS) 3.53 µM | GI50 (SNB-75 CNS) 1610 nM | GI50 (SR leukemia) 1320 nM | GI50 (SW-620 colon) 2950 nM | GI50 (T-47D breast) 1930 nM | GI50 (TK-10 renal) 2500 nM | GI50 (U251 CNS) 2790 nM | GI50 (UACC-257 melanoma) 2150 nM | GI50 (UACC-62 melanoma) 2200 nM | GI50 (UO-31 renal) 1220 nM
4.56 µM: TGI (SF-295 CNS)
9.13 µM: TGI (786-0 renal)
4.61 µM: TGI (RPMI-8226 leukemia)
16.5 µM: TGI (OVCAR-4 ovarian)
7.91 µM: TGI (ACHN renal)
7.57 µM: TGI (HOP-92 NSCLC)
7.9 µM: TGI (SF-268 CNS)
10.1 µM: TGI (HCT-116 colon) | TGI (MDA-MB-231 breast)
15.7 µM: TGI (A549 NSCLC)
13.4 µM: TGI (HT29 colon)
11.7 µM: TGI (EKVX NSCLC)
13.3 µM: TGI (MALME-3M melanoma)
15.2 µM: TGI (NCI-H460 lung)
10.9 µM: TGI (OVCAR-5 ovarian)
11.5 µM: TGI (MDA-MB-435) | TGI (SN12C renal)
3.9 µM: TGI (CAKI-1 renal)
11.1 µM: TGI (U251 CNS)
7.76 µM: TGI (COLO 205 colon)
11.9 µM: TGI (SW-620 colon)
8.18 µM: TGI (HS 578T breast)
10.8 µM: TGI (HCC-2998 colon)
3.22 µM: TGI (LOX IMVI melanoma)
11.2 µM: TGI (TK-10 renal)
3.55 µM: TGI (A498 renal)
11.3 µM: TGI (DU-145 prostate)
12.4 µM: TGI (K-562 leukemia) | TGI (UACC-257 melanoma)
14.1 µM: TGI (SK-MEL-2 melanoma)
3.47 µM: TGI (UO-31 renal)
8.83 µM: TGI (MOLT-4 leukemia)
7.49 µM: TGI (OVCAR-3 ovarian)
3.36 µM: TGI (RXF 393 renal)
15.6 µM: TGI (SNB-19 CNS)
3.18 µM: TGI (NCI/ADR-RES ovarian)
8.37 µM: TGI (SR leukemia)
7.35 µM: TGI (HOP-62 NSCLC)
9.07 µM: TGI (SNB-75 CNS)
11.6 µM: TGI (M14 melanoma)
13.6 µM: TGI (HCT-15 colon) | TGI (KM12 colon)
15.9 µM: TGI (PC-3 prostate)
19 µM: TGI (NCI-H226 lung)
14 µM: TGI (OVCAR-8 ovarian)
16.4 µM: TGI (BT-549 breast)
9.34 µM: TGI (IGROV1 ovarian)
3.59 µM: TGI (SK-MEL-5 melanoma)
10.4 µM: TGI (SF-539 CNS) | TGI (SK-MEL-28 melanoma)

COc1ccc(N2C(=O)/C(=C\c3cccc(Oc4ccccc4)c3)S(=O)(=O)C2c2ccccc2)cc1 (configuration not stated)
91.7 µM: TGI (BT-549 breast)
> 100 µM: TGI (A498 renal) | TGI (A549 NSCLC) | TGI (ACHN renal) | TGI (CAKI-1 renal) | TGI (CCRF-CEM leukemia) | TGI (COLO 205 colon) | TGI (DU-145 prostate) | TGI (HCC-2998 colon) | TGI (HCT-116 colon) | TGI (HCT-15 colon) | TGI (HOP-62 NSCLC) | TGI (HOP-92 NSCLC) | TGI (K-562 leukemia) | TGI (KM12 colon) | TGI (LOX IMVI melanoma) | TGI (M14 melanoma) | TGI (MALME-3M melanoma) | TGI (MCF7 breast) | TGI (MDA-MB-231 breast) | TGI (MDA-MB-435) | TGI (NCI-H226 lung) | TGI (NCI-H23 lung) | TGI (NCI-H460 lung) | TGI (OVCAR-3 ovarian) | TGI (OVCAR-4 ovarian) | TGI (OVCAR-5 ovarian) | TGI (PC-3 prostate) | TGI (RXF 393 renal) | TGI (SK-MEL-2 melanoma) | TGI (SK-MEL-28 melanoma) | TGI (SN12C renal) | TGI (SNB-19 CNS) | TGI (SW-620 colon) | TGI (T-47D breast) | TGI (TK-10 renal) | TGI (U251 CNS) | TGI (UACC-257 melanoma) | TGI (UACC-62 melanoma) | TGI (UO-31 renal)
58.9 µM: TGI (HL-60(TB) leukemia)
42.5 µM: TGI (786-0 renal)
59.3 µM: TGI (SR leukemia)
60.8 µM: TGI (NCI-H522 lung)
98.7 µM: TGI (SK-MEL-5 melanoma)
88 µM: TGI (EKVX NSCLC)
87.6 µM: TGI (MDA-N)
22.5 µM: TGI (MOLT-4 leukemia)
46.2 µM: TGI (NCI/ADR-RES ovarian)

COC(=O)C1C2C=CC(C2)N1S(=O)(=O)c1ccccc1 (configuration not stated)
> 100 µM: TGI (786-0 renal) | TGI (A498 renal) | TGI (A549 NSCLC) | TGI (ACHN renal) | TGI (CAKI-1 renal) | TGI (COLO 205 colon) | TGI (DU-145 prostate) | TGI (HCT-116 colon) | TGI (HCT-15 colon) | TGI (HOP-62 NSCLC) | TGI (HOP-92 NSCLC) | TGI (HT29 colon) | TGI (K-562 leukemia) | TGI (KM12 colon) | TGI (M14 melanoma) | TGI (MALME-3M melanoma) | TGI (MCF7 breast) | TGI (MDA-MB-231 breast) | TGI (MDA-MB-435) | TGI (MDA-N) | TGI (MOLT-4 leukemia) | TGI (NCI-H23 lung) | TGI (NCI-H460 lung) | TGI (NCI-H522 lung) | TGI (NCI/ADR-RES ovarian) | TGI (OVCAR-3 ovarian) | TGI (OVCAR-4 ovarian) | TGI (OVCAR-5 ovarian) | TGI (OVCAR-8 ovarian) | TGI (PC-3 prostate) | TGI (RPMI-8226 leukemia) | TGI (RXF 393 renal) | TGI (SF-268 CNS) | TGI (SF-295 CNS) | TGI (SF-539 CNS) | TGI (SK-MEL-2 melanoma) | TGI (SK-MEL-28 melanoma) | TGI (SK-MEL-5 melanoma) | TGI (SK-OV-3 ovarian) | TGI (SN12C renal) | TGI (SNB-19 CNS) | TGI (SW-620 colon) | TGI (T-47D breast) | TGI (TK-10 renal) | TGI (U251 CNS) | TGI (UACC-62 melanoma) | TGI (UO-31 renal)
